Read-outs that look alike come from different tables or passages of the source.
Columns and labels:
[1] = Change of pH value of the aqueous solution during storage; format: physicochemical; details: aqueous solution adjusted to pH 6 to 7
[2] = Stability test at 60° C., addition amount of ascorbic acid at pH 8.1 (Example 4), HPLC content; format: physicochemical; details: for remaining calcium levofolinate content compared with the initial value (100): 60° C.
Protocol: (§1) For the aqueous preparations obtained in (1) to (3) above, tests evaluating stability at 60° C./3 weeks were performed. The calcium levofolinate content remaining in the aqueous solution was measured using high performance liquid chromatography under the following conditions (the same were employed in the following experiments) 2 ml each of the test preparations were weighed, and 10 ml of the internal standard solution described below (the same was employed in the following experiments) were added thereto. Subsequently, water was added to adjust the total volume of the solution to 50 ml, thereby to prepare a test solution. Meanwhile, 62.5 mg of calcium levofolinate were dissolved in water so as to prepare a 25 ml solution. Then, to 10 ml of the resultant solution were added 10 ml of the internal standard solution, and the total volume of the solution was adjusted to 50 ml by adding water, thereby to prepare a standard solution. For 20 μl of the standard solution and the test solution, the content of calcium levofolinate was measured by the liquid chromatography method under the following conditions.
(§2) 1) Measurement Conditions • Detector: Ultraviolet absorptiometer (Measurement wavelength: 254 nm) • Column: A stainless tube having an internal diameter of 4.0 mm and a length of 15 cm was filled with 5 μm of octadecylsilylated silica gel for liquid chromatography. • Column temperature: A constant temperature near 45° C. • Mobile phase: The pH value of a mixed test solution containing 0.008 mol/L of disodium hydrogen phosphate solution/methanol/40% aqueous tetrabutylammonium hydroxide solution (385:110:1.3 (volume ratio)) was adjusted to 7.5 by adding phosphoric acid. • Flow rate: The flow rate was regulated so that the retention time of calcium levofolinate became about 10 minutes. • Internal standard solution: A solution prepared by adding water to 0.04 g of methyl parahydroxybenzoate so that the whole amount of solution is 100 ml.
About 80 ml of water for injection were added to a beaker (volume: 200 ml). Then 0.56 g of sodium chloride, 0.3 g of tromethamine, and 1.375 g of calcium levofolinate (1.1 g, in terms of 5-formyl-(6S)-tetrahydrofolic acid) were added to it with bubbling of nitrogen gas, and the components were dissolved with stirring (this procedure was performed […]). Subsequently, 0 (no addition), 0.05 g, 0.1 g, 0.3 g, 0.5 g or 1.0 g of ascorbic acid was added to each solution, and was dissolved with stirring, to prepare six solutions. Thereafter, in the case where the addition amount of ascorbic acid is 0 (no addition), 0.05 g, or 0.1 g, the pH value of each solution was adjusted to 8.1 by adding 5% hydrochloric acid dropwise. In the case where the addition amount of ascorbic acid is 0.3 g, 0.5 g, or 1.0 g, the pH value of each solution was adjusted to 8.1 by adding 1% aqueous sodium hydroxide solution dropwise. Water for injection was further added to each solution to adjust the total volume of the solution to 100 ml. Subsequently, the bubbling of nitrogen gas was stopped, and each solution was filtered with a filtration filter, thereby to yield a solution for injection. Subsequently, each of five 5 ml-glass ampules the inside space of which had been substituted by nitrogen gas, was filled with 5 ml of the resultant solution for injection, and it was sealed by heating.
For each aqueous preparation obtained as above, a test evaluating stability at 60° C. was performed by measuring the remaining calcium levofolinate content by the high performance liquid chromatography method.

[3] = format: physicochemical; details: buffer, 13 mg/mL, pH 6.2
Protocol: as §1, §2
About 1100 ml of water for injection were added to a beaker. Then, 8.04 g of sodium chloride, 3.6 g of tromethamine, and 1.2 g of ascorbic acid were added thereto with bubbling of nitrogen gas, and the components were dissolved with stirring. To the resultant solution were added 15.62 g of calcium levofolinate, which was dissolved with stirring. Thereafter, the pH value of the solution was adjusted to 6.2 by adding 5% hydrochloric acid solution dropwise. Water for injection was further added to the solution to adjust the total volume to 1200 ml. Subsequently, the bubbling of nitrogen gas was stopped, and the solution was filtered with a filtration filter, thereby to yield a solution for injection. A 5 ml-syringe made of polypropylene, the inside space of which had been substituted by nitrogen gas, was filled with 5 ml of the resultant solution for injection, followed by steam sterilization under high pressure at 105° C. for 30 minutes. The thus-sterilized syringe was packaged together with a deoxidant, AGELESS ZP-50 (trade name, Mitsubishi Gas Chemical Company, Inc. Japan) by using a plastic film with high air impermeability.
For an aqueous preparation as obtained above, a stability test (60° C./75% RH, and 40° C./75% RH) was performed by measuring the content of calcium levofolinate remaining after storage for a certain period by the high performance liquid chromatography method.

change of pH value of the aqueous solution during storage [1]: gradually changes to an acid region
remaining calcium levofolinate content compared with the initial value (100) ([2]; ascorbic acid 0% (No addition), 1 month): 79.7
remaining calcium levofolinate content compared with the initial value (100) ([2]; ascorbic acid 0% (No addition), 1 week): 94.1
remaining calcium levofolinate content compared with the initial value (100) ([2]; ascorbic acid 0% (No addition), 2 weeks): 88.7
remaining calcium levofolinate content compared with the initial value (100) ([2]; ascorbic acid 0% (No addition), 3 weeks): 86.0
calcium levofolinate content, Initial value (100) ([2]; ascorbic acid 0% (No addition)): 100
remaining calcium levofolinate content compared with the initial value (100) ([2]; ascorbic acid 0.05%, 1 month): 82.6
remaining calcium levofolinate content compared with the initial value (100) ([2]; ascorbic acid 0.05%, 1 week): 96.4
remaining calcium levofolinate content compared with the initial value (100) ([2]; ascorbic acid 0.05%, 2 weeks): 92.4
remaining calcium levofolinate content compared with the initial value (100) ([2]; ascorbic acid 0.05%, 3 weeks): 87.3
calcium levofolinate content, Initial value (100) ([2]; ascorbic acid 0.05%): 100
remaining calcium levofolinate content compared with the initial value (100) ([2]; ascorbic acid 0.1%, 1 month): 82.2
remaining calcium levofolinate content compared with the initial value (100) ([2]; ascorbic acid 0.1%, 1 week): 97.4
remaining calcium levofolinate content compared with the initial value (100) ([2]; ascorbic acid 0.1%, 2 weeks): 93.1
remaining calcium levofolinate content compared with the initial value (100) ([2]; ascorbic acid 0.1%, 3 weeks): 87.7
calcium levofolinate content, Initial value (100) ([2]; ascorbic acid 0.1%): 100
remaining calcium levofolinate content compared with the initial value (100) ([2]; ascorbic acid 0.3%, 1 month): 81.6
remaining calcium levofolinate content compared with the initial value (100) ([2]; ascorbic acid 0.3%, 1 week): 96.3
remaining calcium levofolinate content compared with the initial value (100) ([2]; ascorbic acid 0.3%, 2 weeks): 91.3
remaining calcium levofolinate content compared with the initial value (100) ([2]; ascorbic acid 0.3%, 3 weeks): 86.9
calcium levofolinate content, Initial value (100) ([2]; ascorbic acid 0.3%): 100
remaining calcium levofolinate content compared with the initial value (100) ([2]; ascorbic acid 0.5%, 1 month): 80.9
remaining calcium levofolinate content compared with the initial value (100) ([2]; ascorbic acid 0.5%, 1 week): 96.5
remaining calcium levofolinate content compared with the initial value (100) ([2]; ascorbic acid 0.5%, 2 weeks): 90.9
remaining calcium levofolinate content compared with the initial value (100) ([2]; ascorbic acid 0.5%, 3 weeks): 86.0
calcium levofolinate content, Initial value (100) ([2]; ascorbic acid 0.5%): 100
remaining calcium levofolinate content compared with the initial value (100) ([2]; ascorbic acid 1.0%, 1 month): 80.3
remaining calcium levofolinate content compared with the initial value (100) ([2]; ascorbic acid 1.0%, 1 week): 95.4
remaining calcium levofolinate content compared with the initial value (100) ([2]; ascorbic acid 1.0%, 2 weeks): 89.8
remaining calcium levofolinate content compared with the initial value (100) ([2]; ascorbic acid 1.0%, 3 weeks): 84.1
calcium levofolinate content, Initial value (100) ([2]; ascorbic acid 1.0%): 100
remaining ratio (%) of calcium levofolinate ([3]; 0 months): 100%
remaining ratio (%) of calcium levofolinate ([3]; 0 weeks): 100%
remaining ratio (%) of calcium levofolinate ([3]; 1 month): 99.8%
remaining ratio (%) of calcium levofolinate ([3]; 2 months): 98.8%
remaining ratio (%) of calcium levofolinate ([3]; 4 months): 96.6%
remaining ratio (%) of calcium levofolinate ([3]; 6 months): 91.8%
remaining ratio (%) of calcium levofolinate ([3]; 168 h): 96.6%
remaining ratio (%) of calcium levofolinate ([3]; 336 h): 96.2%
remaining ratio (%) of calcium levofolinate ([3]; 504 h): 95.3%
remaining ratio (%) of calcium levofolinate ([3]; 672 h): 94.4%
SMILES: Nc1nc(=O)c2c([nH]1)NC[C@H](CNc1ccc(C(=O)N[C@@H](CCC(=O)O)C(=O)O)cc1)N2C=O [calcium levofolinate, (6S)-N-[4-[[(2-amino-5-formyl-1,4,5,6,7,8-hexahydro-4-oxo-6-pteridinyl)methyl]amino]benzoyl]-L-glutamic acid]

— patent US20060058312A1, “Stabilized aqueous preparation for injection” (priority 2004, published 2006)
